# Reference: US20240245786A1, “SMALL MOLECULE DEGRADERS OF PHOSPHATIDYLINOSITOL-5-PHOSPHATE 4-KINASE TYPE 2 AND USES THEREOF” (DANA-FARBER CANCER INSTITUTE, INC., priority 2020, published 2024)
# Tests used:
# PIP4K2B [1] = target: T1, PIP4K2B (Homo sapiens, UniProt P78356); test: IC50 for bifunctional compound 1, PIP4K2B (biochemical binding affinity)
# T1 sequence (P78356 1-416): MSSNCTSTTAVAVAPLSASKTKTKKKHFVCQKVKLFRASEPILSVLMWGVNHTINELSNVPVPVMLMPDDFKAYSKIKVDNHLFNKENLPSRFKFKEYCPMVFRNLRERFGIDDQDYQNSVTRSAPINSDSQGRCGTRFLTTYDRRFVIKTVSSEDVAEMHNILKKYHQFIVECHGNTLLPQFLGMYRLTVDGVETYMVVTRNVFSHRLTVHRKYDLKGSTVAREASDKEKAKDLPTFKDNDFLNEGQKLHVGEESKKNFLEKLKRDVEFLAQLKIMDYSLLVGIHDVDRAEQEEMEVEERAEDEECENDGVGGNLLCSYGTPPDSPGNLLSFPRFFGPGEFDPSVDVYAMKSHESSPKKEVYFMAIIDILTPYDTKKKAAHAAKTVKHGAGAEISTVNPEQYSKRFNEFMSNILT
# PIP4K2B [2] = target: T1, PIP4K2B; test: Proteomics analysis (TMT LC-MS3) of Molt4 cells, PIP4K2B abundance; conditions: 1 μM, 5 h
# Procedure: (§1) Molt4 cells were treated with DMSO or the indicated compound for 5 h, and cells were harvested by centrifugation. […] The homogenized sample was clarified by centrifugation at 20,000×g for 10 min at 4° C. A micro-BCA assay (Pierce™) was used to determine the final protein concentration in the cell lysate. […] Proteins were precipitated using methanol/chloroform. In brief, four volumes of methanol were added to the cell lysate, followed by one volume of chloroform, and finally three volumes of water. The mixture was vortexed and centrifuged at 14,000×g for 5 min to separate the chloroform phase from the aqueous phase. […] The sample channels were combined in a 1:1:1:1:1:1:1:1:1:1 ratio, desalted using C18 solid phase extraction cartridges (Waters®) and analyzed by liquid chromatography-mass spectrometry (LC-MS) for channel ratio comparison. Samples were then combined using the adjusted volumes determined in the channel ratio analysis and dried down in a speed vacuum. […]
# (§2) Proteome Discoverer™ 2.2 (Thermo Fisher) was used for RAW file processing and controlling peptide and protein level false discovery rates, assembling proteins from peptides, and protein quantification from peptides. […] TMT reporter ion intensities were measured using a 0.003 Da window around the theoretical m z for each reporter ion in the MS3 scan. […]
# PIP4K2A [3] = target: T2, PIP4K2A (Homo sapiens, UniProt P48426); test: IC50 for bifunctional compound 1, PIP4K2A (biochemical binding affinity)
# T2 sequence (P48426 1-406): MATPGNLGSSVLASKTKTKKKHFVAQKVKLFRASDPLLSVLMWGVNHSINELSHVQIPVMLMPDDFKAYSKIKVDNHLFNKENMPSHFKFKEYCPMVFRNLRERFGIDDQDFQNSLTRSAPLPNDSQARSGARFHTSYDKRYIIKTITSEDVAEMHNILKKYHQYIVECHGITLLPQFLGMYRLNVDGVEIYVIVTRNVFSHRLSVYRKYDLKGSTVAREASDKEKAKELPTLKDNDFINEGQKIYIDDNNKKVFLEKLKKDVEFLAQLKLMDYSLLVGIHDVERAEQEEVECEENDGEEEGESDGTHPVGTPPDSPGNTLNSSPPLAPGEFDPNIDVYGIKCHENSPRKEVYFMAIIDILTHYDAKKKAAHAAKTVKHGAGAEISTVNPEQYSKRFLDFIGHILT
# [4] = target: T3, ETS2 Repressor Factor (ERF) (Homo sapiens, UniProt P50548); test: Immunoblot of ERF degradation in Molt4 cells (FIG. 1D); format: cell-based; parameters: immunoblot of PIP4K2A, PIP4K2B, PIP4K2C, and ERF degradation in Molt4 cells; endogenous in cells; host or cells: Molt4; conditions: 6 h or 8 h
# T3 sequence (P50548 1-548): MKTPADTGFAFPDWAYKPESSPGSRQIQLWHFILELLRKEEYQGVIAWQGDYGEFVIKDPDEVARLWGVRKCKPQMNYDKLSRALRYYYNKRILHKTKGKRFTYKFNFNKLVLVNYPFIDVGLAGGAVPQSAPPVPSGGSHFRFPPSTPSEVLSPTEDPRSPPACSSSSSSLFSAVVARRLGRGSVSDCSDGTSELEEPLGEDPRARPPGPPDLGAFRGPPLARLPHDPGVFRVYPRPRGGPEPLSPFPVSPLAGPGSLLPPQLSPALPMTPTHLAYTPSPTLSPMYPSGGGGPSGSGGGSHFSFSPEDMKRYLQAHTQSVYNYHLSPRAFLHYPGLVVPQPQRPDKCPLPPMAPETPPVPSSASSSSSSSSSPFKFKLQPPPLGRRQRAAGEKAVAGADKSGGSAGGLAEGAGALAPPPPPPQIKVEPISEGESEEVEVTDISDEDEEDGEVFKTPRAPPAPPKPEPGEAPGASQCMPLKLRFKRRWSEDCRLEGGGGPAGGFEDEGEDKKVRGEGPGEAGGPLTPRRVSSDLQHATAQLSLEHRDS
# Procedure: Molt4 cells were treated with the indicated compounds for the indicated time in FIG. 1A-FIG. 1F and FIG. 3A-FIG. 3B. Cells were lysed in M-PER™ buffer (Thermo Scientific) containing protease/phosphatase inhibitor cocktail (Roche®). Protein concentration was measured using a bicinchoninic acid (BCA) assay (Pierce™). Equivalent amounts of each sample were loaded on 4-12% Bis-Tris gels (Invitrogen™), transferred to nitrocellulose membranes, and immunoblotted with antibodies against the indicated proteins. IRDye®800-labeled goat anti-rabbit IgG and IRDye®680-labeled goat anti-mouse IgG (LI-COR®) secondary antibodies were purchased for LI-COR®, and membranes were detected on an Odyssey® detection system (LI-COR® Biosciences).
# [5] = target: T3, ETS2 Repressor Factor (ERF); test: Proteomics analysis (TMT LC-MS3) of Molt4 cells, ERF; conditions: 1 μM, 5 h
# Procedure: as §1, §2
# PIP4K2A [6] = target: T2, PIP4K2A; test: Proteomics analysis (TMT LC-MS3) of Molt4 cells, PIP4K2A abundance; conditions: 1 μM, 5 h
# Procedure: as §1, §2
smiles,measurement,setting,value
"Cc1ncsc1-c1ccc([C@H](C)NC(=O)C2C[C@@H](O)CN2C(=O)[C@@H](NC(=O)CCCCC(=O)Nc2ccc(C(=O)Nc3cccc(Nc4cc(-c5c[nH]c6ccccc56)ncn4)c3)cc2)C(C)(C)C)cc1 (stereo partly drawn) [Compound 1, N1-(4-((3-((6-(1H-indol-3-yl)pyrimidin-4-yl)amino)phenyl)carbamoyl)phenyl)-N6-((2S)-1-((4R)-4-hydroxy-2-(((S)-1-(4-(4-methylthiazol-5-yl)phenyl)ethyl)carbamoyl)pyrrolidin-1-yl)-3,3-dimethyl-1-oxobutan-2-yl)adipamide]",IC50,PIP4K2B [1],14 µM
same,change in abundance of PIP4K2B (proteomics),PIP4K2B [2],no detectable change in abundance
same,IC50,PIP4K2A [3],> 10 µM
same,"ERF degradation, as seen in FIG. 1D",[4],scored as a potential degraded protein
same,"ERF degradation, validation by proteomics analysis",[5],not validated as a confirmed degraded protein
same,change in abundance of PIP4K2A (proteomics),PIP4K2A [6],no detectable change in abundance
